What all share (assay type): cell-based
The subject of one experiment is Marburg virus (MARV). The experiment is described as follows: organism not typed. The note with it: Vero, 72 h, read-out: Percent viral inhibition MARV.
The test system of experiment [1] is Chikungunya virus (CHIKV). The experiment is described as follows: microbe, parasite or virus in culture. The note with it: Chikungunya virus, Vero, 48 h, read-out: Percent viral inhibition CHKV.
Another experiment concerns dengue virus (DENV). The experiment is described as follows: microbe, parasite or virus in culture. The note with it: Dengue virus, Vero, 120 h, read-out: Percent viral inhibition DENY.

Turning to `COC(=O)NCC1CCN(Cc2cc(Oc3cnc(N4CCNCC4)nc3)nc(-c3cc(F)cc(Cl)c3)c2)CC1` [Example 275, methyl((1-((2-(3-chloro-5-fluorophenyl)-6-((2-(piperazin-1-yl)pyrimidin-5-yl)oxy)pyridin-4-yl)methyl)piperidin-4-yl)methyl)carbamate], the inhibition at 1 µM (in the experiment on Marburg virus (MARV); in experiment [1]; with dengue virus (DENV)) was 0% each time.

For the compound `CC(=O)NCC1CCN(Cc2cc(-c3cc(Cl)cc(Cl)c3)nc(Oc3ccc(N4CCNCC4)nc3)n2)CC1` [Example 90, N-((1-((6-(3,5-dichlorophenyl)-2-((6-(piperazin-1-yl)pyridin-3-yl)oxy)pyrimidin-4-yl)methyl)piperidin-4-yl)methyl)acetamide], the results for the inhibition at 1 µM (in the experiment on Marburg virus (MARV); in experiment [1]; with dengue virus (DENV)) were 75.5%, 44.2% and 54.9%, respectively.

On to `C[C@]1(O)C[C@H](N2CCN(c3ncc(Oc4cc(CN5CCC(CC(=O)O)CC5)cc(-c5cc(Cl)cc(Cl)c5)n4)cn3)CC2)C1` [Example 25, 2-(1-((2-(3,5-dichlorophenyl)-6-((2-(4-((1r,3r)-3-hydroxy-3-methylcyclobutyl)piperazin-1-yl)pyrimidin-5-yl)oxy)pyridin-4-yl)methyl)piperidin-4-yl)acetic acid], for which the inhibition at 1 µM in the experiment with Marburg virus (MARV) amounted to 65.5%; in experiment [1], 26.3%; in the experiment on dengue virus (DENV), 13.7%.

Consider `CC(O)CCN1CCN(c2cnc(Oc3cc(CN4CCC(CC(=O)O)CC4)cc(-c4cc(Cl)cc(Cl)c4)n3)cn2)CC1` (stereo not drawn) [Example 349, 2-(1-((2-(3,5-dichlorophenyl)-6-((5-(4-(3-hydroxybutyl)piperazin-1-yl)pyrazin-2-yl)oxy)pyridin-4-yl)methyl)piperidin-4-yl)acetic acid], for which the inhibition at 1 µM in the experiment on Marburg virus (MARV) was 64.5%; in experiment [1] it was 26.2%; with dengue virus (DENV), 57.6%.

In the case of `CNCc1cc(Oc2ccc(N3CCC(N)CC3)nc2)nc(-c2cc(C)cc(Cl)c2)c1` [Example 108, 1-(5-((6-(3-chloro-5-methylphenyl)-4-((methylamino)methyl)pyridin-2-yl)oxy)pyridin-2-yl)piperidin-4-amine], the inhibition at 1 µM with Marburg virus (MARV) was 65.7%; in experiment [1], 16.4%; with dengue virus (DENV), 0%.

As for `C[C@@H](CC1CCN(Cc2cc(Oc3cnc(N4CCN(C)CC4)nc3)nc(-c3cc(Cl)cc(Cl)c3)c2)CC1)C(=O)O` [Example 134, (S)-3-(1-((2-(3,5-dichlorophenyl)-6-((2-(4-methylpiperazin-1-yl)pyrimidin-5-yl)oxy)pyridin-4-yl)methyl)piperidin-4-yl)-2-methylpropanoic acid], the figures for the inhibition at 1 µM (in the experiment on Marburg virus (MARV); in experiment [1]; in the experiment with dengue virus (DENV)) were 45.1%, 0% and 43.2%, respectively.

For the compound `CCN1CCCN(c2cnc(Oc3cc(CN4CCC(CC(=O)O)CC4)cc(-c4cc(Cl)cc(Cl)c4)n3)cn2)CC1` [Example 345, 2-(1-((2-(3,5-dichlorophenyl)-6-((5-(4-ethyl-1,4-diazepan-1-yl)pyrazin-2-yl)oxy)pyridin-4-yl)methyl)piperidin-4-yl)acetic acid], the values for the inhibition at 1 µM (in the experiment on Marburg virus (MARV); in experiment [1]; in the experiment with dengue virus (DENV)) were 57%, 22.1% and 44%, respectively.

Turning to `CCC(=O)NCC1CCN(Cc2cc(Oc3cnc(N4CCN(CCC(C)C(=O)O)CC4)cn3)nc(-c3cc(Cl)cc(Cl)c3)c2)CC1` (stereo not drawn) [Example 392, 4-(4-(5-((6-(3,5-dichlorophenyl)-4-((4-(propionamidomethyl)piperidin-1-yl)methyl)pyridin-2-yl)oxy)pyrazin-2-yl)piperazin-1-yl)-2-methylbutanoic acid], the inhibition at 1 µM came to 60.6% in the experiment with Marburg virus (MARV), 15.8% in experiment [1] and 34.9% with dengue virus (DENV).

In the case of `O=S(=O)(O)CCC1CCN(Cc2cc(Oc3ccc(N4CCNCC4)nc3)nc(-c3cc(Cl)cc(Cl)c3)c2)CC1` [Example 7, 2-(1-((2-(3,5-dichlorophenyl)-6-((6-(piperazin-1-yl)pyridin-3-yl)oxy)pyridin-4-yl)methyl)piperidin-4-yl) ethanesulfonic acid], the inhibition at 1 µM in the experiment on Marburg virus (MARV) was 51.9%; in experiment [1] it was 9.36%; in the experiment on dengue virus (DENV), 12.9%.

Regarding `CC1(C)CN(c2ncc(Oc3cc(CN4CCC(CC(=O)O)CC4)cc(-c4cc(Cl)cc(Cl)c4)n3)cn2)CCN1` [Example 160, 2-(1-((2-(3,5-dichlorophenyl)-6-((2-(3,3-dimethylpiperazin-1-yl)pyrimidin-5-yl)oxy)pyridin-4-yl)methyl)piperidin-4-yl)acetic acid], the inhibition at 1 µM amounted to 35.1% with Marburg virus (MARV), 21.7% in experiment [1] and 49.5% with dengue virus (DENV).

Take `CC(=O)NCC1CCN(Cc2cc(Oc3ccc(N4CCN(CCO)CC4)nc3)nc(-c3cc(Cl)cc(Cl)c3)c2)CC1` [Example 180, N-((1-((2-(3,5-dichlorophenyl)-6-((6-(4-(2-hydroxyethyl)piperazin-1-yl)pyridin-3-yl)oxy)pyridin-4-yl)methyl)piperidin-4-yl)methyl)acetamide]: the inhibition at 1 µM in the experiment on Marburg virus (MARV) came to 25.4%; in experiment [1], 0%; with dengue virus (DENV), 10.4%.

In the case of `CNC(=O)NCC1CCN(Cc2cc(Oc3ccc(N4CCN(CCC(=O)O)CC4)nc3)nc(-c3cc(Cl)cc(Cl)c3)c2)CC1` [Example 41, 3-(4-(5-((6-(3,5-dichlorophenyl)-4-((4-((3-methylureido)methyl)piperidin-1-yl)methyl)pyridin-2-yl)oxy)pyridin-2-yl)piperazin-1-yl)propanoic acid], the inhibition at 1 µM with Marburg virus (MARV) stood at 43%; in experiment [1] it was 30.1%; in the experiment with dengue virus (DENV), 68.7%.

Consider `CN1C[C@@H]2C[C@H]1CN2c1ncc(Oc2cc(CN3CCC(CC(=O)O)CC3)cc(-c3cc(Cl)cc(Cl)c3)n2)cn1` [Example 231, 2-(1-((2-(3,5-dichlorophenyl)-6-((2-((1S,4S)-5-methyl-2,5-diazabicyclo[2.2.1]heptan-2-yl)pyrimidin-5-yl)oxy)pyridin-4-yl)methyl)piperidin-4-yl)acetic acid], for which the inhibition at 1 µM in the experiment with Marburg virus (MARV) was 66.6%; in experiment [1] it was 25.8%; in the experiment on dengue virus (DENV), 44.2%.

On to `CN1CCN(c2ncc(Oc3cc(CN4CCC5(CC4)CN(C(=O)CO)C5)cc(-c4cc(Cl)cc(Cl)c4)n3)cn2)CC1` [Example 135, 1-(7-((2-(3,5-dichlorophenyl)-6-((2-(4-methylpiperazin-1-yl)pyrimidin-5-yl)oxy)pyridin-4-yl)methyl)-2,7-diazaspiro[3.5]nonan-2-yl)-2-hydroxyethanone], for which the results for the inhibition at 1 µM (in the experiment with Marburg virus (MARV); in experiment [1]; with dengue virus (DENV)) were 51.3%, 12.8% and 56.2%, respectively.

Turning to `CNC(=O)OCC1CCN(Cc2cc(Oc3cnc(N4CCN(CCCS(C)(=O)=O)CC4)nc3)nc(-c3cc(Cl)cc(Cl)c3)c2)CC1` [Example 210, (1-((2-(3,5-dichlorophenyl)-6-((2-(4-(3-(methylsulfonyl)propyl)piperazin-1-yl)pyrimidin-5-yl)oxy)pyridin-4-yl)methyl)piperidin-4-yl)methylmethylcarbamate], the inhibition at 1 µM with Marburg virus (MARV) was 32.6%; in experiment [1], 3.75%; in the experiment with dengue virus (DENV), 21%.

`CC(O)CC1CCN(Cc2cc(Oc3cnc(N4CCN(C)CC4)nc3)nc(-c3cc(Cl)cc(Cl)c3)c2)CC1` (stereo not drawn) [Example 138, 1-(1-((2-(3,5-dichlorophenyl)-6-((2-(4-methylpiperazin-1-yl)pyrimidin-5-yl)oxy)pyridin-4-yl)methyl)piperidin-4-yl)propan-2-ol]: the inhibition at 1 µM was found to be 32.4% in the experiment on Marburg virus (MARV), 21.7% in experiment [1] and 54.9% in the experiment on dengue virus (DENV).

For the compound `CC(CC1CCN(Cc2cc(Oc3cnc(N4CCN(C[C@@H](C)O)CC4)nc3)nc(-c3cc(Cl)cc(Cl)c3)c2)CC1)C(=O)O` (stereo partly drawn) [Example 301, 3-(1-((2-(3,5-dichlorophenyl)-6-((2-(4-((R)-2-hydroxypropyl)piperazin-1-yl)pyrimidin-5-yl)oxy)pyridin-4-yl)methyl)piperidin-4-yl)-2-methylpropanoic acid], the figures for the inhibition at 1 µM (in the experiment on Marburg virus (MARV); in experiment [1]; with dengue virus (DENV)) were 68.4%, 28.8% and 56.1%, respectively.

Turning to `CNC(=O)OCC1CCN(Cc2cc(Oc3cnc(N4CCN(CCC(=O)O)CC4)nc3)nc(-c3cc(Cl)cc(Cl)c3)c2)CC1` [Example 248, 3-(4-(5-((6-(3,5-dichlorophenyl)-4-((4-(((methylcarbamoyl)oxy)methyl)piperidin-1-yl)methyl)pyridin-2-yl)oxy)pyrimidin-2-yl)piperazin-1-yl) propanoic acid], the results for the inhibition at 1 µM (in the experiment on Marburg virus (MARV); in experiment [1]; in the experiment with dengue virus (DENV)) were 49.6%, 34.8% and 81.2%, respectively.

Consider `CC(CCN1CCN(c2cnc(Oc3cc(CN4CCC(CCO)CC4)cc(-c4cc(Cl)cc(Cl)c4)n3)cn2)CC1)C(=O)O` (stereo not drawn) [Example 341, 4-(4-(5-((6-(3,5-dichlorophenyl)-4-((4-(2-hydroxyethyl)piperidin-1-yl)methyl)pyridin-2-yl)oxy)pyrazin-2-yl)piperazin-1-yl)-2-methylbutanoic acid], for which the inhibition at 1 µM is 50.5% in the experiment with Marburg virus (MARV), 29.2% in experiment [1] and 31.2% in the experiment with dengue virus (DENV).

With `CN1CCN(c2ncc(Oc3cc(CN4CCC(OC(C)(C)C(=O)O)CC4)cc(-c4cc(Cl)cc(Cl)c4)n3)cn2)CC1` [Example 225, 2-((1-((2-(3,5-dichlorophenyl)-6-((2-(4-methylpiperazin-1-yl)pyrimidin-5-yl)oxy)pyridin-4-yl)methyl)piperidin-4-yl)oxy)-2-methylpropanoic acid], the inhibition at 1 µM with Marburg virus (MARV) turned out to be 52.3%; in experiment [1], 24.2%; with dengue virus (DENV), 33.3%.

Consider `CC(=O)NCC1CCN(Cc2cc(Oc3cnc(N4CCN(CC(C)(C)O)CC4)nc3)nc(-c3cc(Cl)cc(Cl)c3)c2)CC1` [Example 303, N-((1-((2-(3,5-dichlorophenyl)-6-((2-(4-(2-hydroxy-2-methylpropyl)piperazin-1-yl)pyrimidin-5-yl)oxy)pyridin-4-yl)methyl)piperidin-4-yl)methyl)acetamide], for which the inhibition at 1 µM came out at 49.6% in the experiment on Marburg virus (MARV), 33.4% in experiment [1] and 34.4% with dengue virus (DENV).

For orientation: inhibition means the percentage by which the read-out fell short of the control.

For the origin of these results see US20230011571A1, “SMALL MOLECULE FURIN INHIBITORS FOR TREATING INFECTIOUS DISEASES” (BP Asset V, Inc., priority 2019, published 2023).
